Results published in ChEMBL document CHEMBL1201862, “PubChem BioAssay data set” (2004).
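Interpolation was linear, between the two tested concentrations surrounding the appropriate level; five concentrations were tested over 48 hours in 96-well plates. The concentration for 50% growth inhibition is given as GI50.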 Activity calls are given as the source filed them. Rule as the data show it: active = GI50 up to about 1.1 µM and inactive = higher.

Tests used:
Experiment in all cases: inhibition of tumour cell growth, NCI panel, 48 h
HCC 2998 = test system: HCC 2998
COLO 205 = test system: COLO 205
KM12 = test system: KM12
RPMI-8226 = test system: RPMI-8226
EKVX = test system: EKVX
A498 = test system: A498
MOLT-4 = test system: MOLT-4
HT-29 = test system: HT-29
HOP-92 = test system: HOP-92
SF-295 = test system: SF-295
NCI-H23 = test system: NCI-H23
RXF 393 = test system: RXF 393
PC-3 = test system: PC-3
IGROV-1 = test system: IGROV-1
NCI-H522 = test system: NCI-H522
MDA-MB-231 = test system: MDA-MB-231
SK-MEL-2 = test system: SK-MEL-2
SK-MEL-5 = test system: SK-MEL-5
HOP-62 = test system: HOP-62
Hs-578T = test system: Hs-578T

Measured: GI50

C=C(C)C1CCC(C(=O)O)CC1 (stereo not given)
inactive: HCC 2998 > 100 µM | COLO 205 > 100 µM | KM12 > 100 µM | RPMI-8226 > 100 µM | EKVX > 100 µM | A498 > 100 µM | MOLT-4 > 100 µM | HT-29 > 100 µM | HOP-92 > 100 µM | SF-295 > 100 µM | NCI-H23 > 100 µM | RXF 393 > 100 µM | PC-3 > 100 µM | IGROV-1 > 100 µM | NCI-H522 > 100 µM | MDA-MB-231 > 100 µM | SK-MEL-2 > 100 µM | SK-MEL-5 > 100 µM | HOP-62 > 100 µM | Hs-578T > 100 µM
